The subject of data set [1] is Saos2 cell lines expressing mutant p53 (Saos2-175, Saos2-281). Kind of data set: Cellular growth studies on Saos-2 cells expressing mutant p53. The data set is classed as cell-based, human. As to conditions: for selective growth arrest/killing of cells expressing mutant p53 (in words): Saos-2 cells with mutant p53 versus p53-null cells. The method, then: (§1) Cellular growth studies were performed on Saos-2 cells, derived from a human osteosarcoma cancer cell line, according to the method described in Example 44. The cells had either no p53 (null) or mutant (mt) p53 at residues 175 and/or 281 (R175H and […], respectively). Selective arrest of mutant cells indicates good anticancer activity.
Cellular growth studies were performed on Saos2 cells. Human osteosarcoma Saos2 cells are devoid of endogenous p53 due to biallelic deletion of the p53 gene. Previously, a series of Saos2 cell lines were engineered to express several human p53 mutants that are commonly found in human cancers. The derivative Saos2 cell lines used in the present study included the following: 1) Saos2-CMV, which is the vector-only control cell line that is negative for p53 protein. 2) Saos2-175, which expresses the human mutant p53-R175H protein. The 175H substitution disrupts the structure of the protein resulting in the loss of DNA binding and tumor suppressor function. This mutation is found in ˜6% of all cancers of diverse tumor types. 3) Saos2-273, which expressed the human mutant p53-R273H protein. The 273H substitution eliminates a DNA contact point resulting in the loss of DNA binding and tumor suppressor function. This mutation represents the second most common hot spot mutation and is found in nearly 8% of all cancers. 4) Saos2-281, which expresses the human mutant p53-D281G protein. This mutation disrupts a stabilizing salt bridge resulting in the loss of DNA binding and tumor suppressor function.
The cells were grown at 37° C. in Dulbecco's modified Eagle's medium (Cambrex, East Rutherford, N.J.) supplemented with 10% fetal bovine serum (Hyclone, Logan, Utah) under 5% CO2. The cells were plated at 1×10^6 per 10 cm tissue culture plates and treated with escalating doses of the indicated compounds (Table 1) for varying lengths of time. Routine concentrations of the synthesized compounds ranged from 1-75 μM. After 72-96 hours, the cells were refed with fresh medium containing the appropriate concentration of the compound. In addition, parallel cultures were prepared and maintained under identical conditions without drug treatment as negative controls. The cells were microscopically analyzed during the course of treatment and the overall effectiveness of the drug treatment on cell growth and survival was assessed on day 7 by staining the cells with Giemsa Stain GS500 (SIGMA, St. Louis, Mo.). Prima-1 was included in all experiments for comparison purposes. […] The few Saos2 mutant p53 cells remaining after treatment with compound 7 were quite large and flat, reminiscent of a differentiated cell.

Data set [2] deals with Saos2-CMV cells (p53-null, vector-only control). The experiment in a line: Cellular growth studies on p53-null Saos2 control cells. Type of data set: cell-based, human. The procedure:
as §1
Cellular growth studies were performed on Saos2 cells. Human osteosarcoma Saos2 cells are devoid of endogenous p53 due to biallelic deletion of the p53 gene. Previously, a series of Saos2 cell lines were engineered to express several human p53 mutants that are commonly found in human cancers. The derivative Saos2 cell lines used in the present study included the following: 1) Saos2-CMV, which is the vector-only control cell line that is negative for p53 protein. 2) Saos2-175, which expresses the human mutant p53-R175H protein. […]
The cells were grown at 37° C. in Dulbecco's modified Eagle's medium (Cambrex, East Rutherford, N.J.) supplemented with 10% fetal bovine serum (Hyclone, Logan, Utah) under 5% CO2. […] The cells were microscopically analyzed during the course of treatment and the overall effectiveness of the drug treatment on cell growth and survival was assessed on day 7 by staining the cells with Giemsa Stain GS500 (SIGMA, St. Louis, Mo.). […]

“Also recorded” adds a separate entry of the source.

Consider `CC(=O)OCC(N)C(=O)c1ccccc1.Cl` (racemic) [Compound 7, 3-Acetoxy-1-oxo-1-phenylpropan-2-aminium chloride], for which, in data set [1], the “selective growth arrest/killing of cells expressing mutant p53 (in words)” value (shortened to “selective growth arrest/killing”) was “activity at lower concentrations, as compared to PRIMA-1; also recorded: efficiently and selectively inhibited the growth of the Saos2 cell lines expressing mutant p53; also recorded: particularly effective at selectively killing cells expressing R175H and R281G p53 mutants at lower concentrations than PRIMA-1”. Moreover, in data set [2] (Saos2-CMV, assessed on day 7 by Giemsa stain), the “effect on growth of CMV-only cells which lack p53 protein” value is given as “no effect”.
`CC(=O)OCC(N)(COC(C)=O)C(=O)c1ccccc1.Cl` [Compound 4, 3-Acetoxy-2-(acetoxymethyl)-1-oxo-1-phenylpropan-2-aminium chloride]: the minimal effective concentration (usually the lowest level tested that produced the effect sought) in data set [1] (Homo sapiens, 168 h, Mutant: 281, Saos-2 cells, concentration at which active, doses 1-75 μM, cell growth and survival assessed on day 7 by Giemsa stain) is 10 µM. Besides, the “selective growth arrest/killing” value in data set [1] is “activity at lower concentrations, as compared to PRIMA-1; also recorded: showed selectivity for R281G mutants”.
Take `CC(=O)OC[C@@H](N)C(=O)c1ccccc1.Cl` [Compound 8, (R)-3-Acetoxy-1-oxo-1-phenylpropan-2-aminium chloride]: in data set [1], the “selective growth arrest/killing” value is given as “improved activity over (±)-7”.
Take `COC(=O)C(N)COC(C)=O.Cl` (stereo not shown) [Compound 14, 3-Acetoxy-1-methoxy-1-oxopropan-2-aminium chloride]: in data set [1], the “selective growth arrest/killing” value is listed as “the desired activity is lost”.
The same measure, in the same setting: next, `CC(=O)OCC(N)C(=O)N1CCOCC1.Cl` (stereo not shown) [Compound 15, 3-Acetoxy-1-morpholino-1-oxopropan-2-aminium chloride]: “the desired activity is lost”.
With `CNC(COC(C)=O)C(=O)c1ccccc1.Cl` (stereo not shown) [Compound 16, 2-(Methylamino)-3-oxo-3-phenylpropyl acetate hydrochloride], the “selective growth arrest/killing” value in data set [1] (acetate hydrochloride) is “the desired activity is lost; also recorded: eliminates the desired activity”.
Regarding `CC(=O)OCC(C)(N)C(=O)c1ccccc1.Cl` (stereo not shown) [Compound 17, 2-Amino-2-methyl-3-oxo-3-phenylpropyl acetate hydrochloride], in data set [1], the “selective growth arrest/killing” value is reported as “eliminates the desired activity”.
On to `O=C1C2CCN(CC2)C1(CO)CO` [PRIMA-1, reference compound], for which the “toxic to p53-null cells at concentration” value in data set [2] (p53-null Saos-2 cells) is 75 µM.

For the origin of these results see patent US7829304B2, “Compounds and related methods for mutant p53 reactivation” (Northwestern University, priority 2003, dated 2010).
